Experimental data reported in the supplement of paper PMC12463676, “Small-molecule dissolution of stress granules by redox modulation benefits ALS models” (Nature Chemical Biology, 2025).

Experiments:
[1] = compound: NC(=O)CCCCC1CCSS1 [lipoamide]; experiment: thermal stability z-score vs DMSO; higher = more thermally stabilized by treatment; conditions: HeLa, lipoamide concentration 100 µM
Procedure: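 Cellular thermal proteome profiling in HeLa cells. Cells were treated with 100 µM lipoamide for 1 h, with or without 1 mM arsenate for a further 1 h, then heated to ten temperatures (37-66.3 °C), and soluble protein was quantified by TMT mass spectrometry relative to 0.1% DMSO controls. The thermal stability score (sum of log2 fold changes minus the abundance score) was transformed to a z-score; mean of n = 3 experiments.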

[2] = compound: O=[As]([O-])(O)O.[K+] [potassium arsenate]; experiment: as above; conditions: HeLa; arsenate concentration 1 mM
Procedure: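 Cellular thermal proteome profiling in HeLa cells treated with 1 mM arsenate for 1 h (DMSO pretreatment), heated to ten temperatures (37-66.3 °C). Soluble protein was quantified by TMT mass spectrometry relative to DMSO controls; the thermal stability score was transformed to a z-score; mean of n = 3 experiments.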

[3] = arsenate co-treatment: 1 mM arsenate 1 h
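Also: each temperature applied for 3 min, abundance score taken as mean log2 fold change at the two lowest temperatures, z-score obtained by mean subtraction and division by SD.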

Sequence of UniProt Q6IPR3 (Q6IPR3 whole entry): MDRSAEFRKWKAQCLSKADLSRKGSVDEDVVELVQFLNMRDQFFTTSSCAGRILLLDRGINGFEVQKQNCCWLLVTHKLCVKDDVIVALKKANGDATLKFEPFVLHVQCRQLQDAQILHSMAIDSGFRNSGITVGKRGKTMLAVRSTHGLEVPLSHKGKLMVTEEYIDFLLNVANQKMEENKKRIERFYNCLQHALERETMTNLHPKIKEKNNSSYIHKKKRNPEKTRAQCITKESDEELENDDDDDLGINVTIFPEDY
Sequence of UniProt A2RUC4 (A2RUC4 whole entry): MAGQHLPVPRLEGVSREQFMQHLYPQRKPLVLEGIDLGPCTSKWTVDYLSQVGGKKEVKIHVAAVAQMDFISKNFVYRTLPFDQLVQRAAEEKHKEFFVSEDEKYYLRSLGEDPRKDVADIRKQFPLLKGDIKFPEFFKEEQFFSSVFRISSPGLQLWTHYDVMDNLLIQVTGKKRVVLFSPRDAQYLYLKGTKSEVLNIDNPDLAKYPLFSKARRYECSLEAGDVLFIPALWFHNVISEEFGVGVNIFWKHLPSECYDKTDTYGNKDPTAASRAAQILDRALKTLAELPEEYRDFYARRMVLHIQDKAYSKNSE
Sequence of UniProt Q9BTX7 (Q9BTX7 whole entry): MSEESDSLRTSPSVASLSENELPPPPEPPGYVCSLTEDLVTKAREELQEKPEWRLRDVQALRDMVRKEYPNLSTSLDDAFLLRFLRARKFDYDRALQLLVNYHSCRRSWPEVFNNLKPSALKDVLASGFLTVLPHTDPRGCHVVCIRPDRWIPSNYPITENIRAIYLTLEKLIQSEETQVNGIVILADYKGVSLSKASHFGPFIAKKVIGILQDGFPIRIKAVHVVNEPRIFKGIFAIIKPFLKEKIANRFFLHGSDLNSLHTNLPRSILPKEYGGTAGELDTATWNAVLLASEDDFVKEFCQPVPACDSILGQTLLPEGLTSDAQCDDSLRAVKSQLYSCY
Sequence of UniProt P23258 (P23258 whole entry): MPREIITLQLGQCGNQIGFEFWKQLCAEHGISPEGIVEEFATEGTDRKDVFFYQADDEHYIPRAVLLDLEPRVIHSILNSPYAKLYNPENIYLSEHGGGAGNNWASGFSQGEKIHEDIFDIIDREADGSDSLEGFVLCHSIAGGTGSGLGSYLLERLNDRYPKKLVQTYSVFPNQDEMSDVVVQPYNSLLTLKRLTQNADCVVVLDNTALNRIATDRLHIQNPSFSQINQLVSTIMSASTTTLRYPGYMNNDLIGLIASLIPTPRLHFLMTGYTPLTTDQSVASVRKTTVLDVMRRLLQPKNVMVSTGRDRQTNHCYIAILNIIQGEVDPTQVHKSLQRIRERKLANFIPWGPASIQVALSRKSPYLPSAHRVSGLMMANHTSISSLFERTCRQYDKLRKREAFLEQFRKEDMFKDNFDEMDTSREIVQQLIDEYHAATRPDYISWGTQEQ
Sequence of UniProt P68366 (P68366 whole entry): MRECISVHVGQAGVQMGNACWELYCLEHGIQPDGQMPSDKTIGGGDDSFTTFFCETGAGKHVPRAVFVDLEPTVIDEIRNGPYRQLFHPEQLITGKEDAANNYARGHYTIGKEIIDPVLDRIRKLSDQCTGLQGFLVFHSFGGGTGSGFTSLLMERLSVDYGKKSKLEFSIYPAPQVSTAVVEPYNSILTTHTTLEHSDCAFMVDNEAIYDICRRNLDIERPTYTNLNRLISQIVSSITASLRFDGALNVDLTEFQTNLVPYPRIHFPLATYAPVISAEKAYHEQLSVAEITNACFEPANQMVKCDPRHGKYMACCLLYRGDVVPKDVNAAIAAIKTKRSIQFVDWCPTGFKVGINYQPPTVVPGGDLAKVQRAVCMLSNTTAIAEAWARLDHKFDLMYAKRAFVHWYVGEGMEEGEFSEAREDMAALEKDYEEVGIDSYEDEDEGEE
Sequence of UniProt Q9UGJ1 (Q9UGJ1 whole entry): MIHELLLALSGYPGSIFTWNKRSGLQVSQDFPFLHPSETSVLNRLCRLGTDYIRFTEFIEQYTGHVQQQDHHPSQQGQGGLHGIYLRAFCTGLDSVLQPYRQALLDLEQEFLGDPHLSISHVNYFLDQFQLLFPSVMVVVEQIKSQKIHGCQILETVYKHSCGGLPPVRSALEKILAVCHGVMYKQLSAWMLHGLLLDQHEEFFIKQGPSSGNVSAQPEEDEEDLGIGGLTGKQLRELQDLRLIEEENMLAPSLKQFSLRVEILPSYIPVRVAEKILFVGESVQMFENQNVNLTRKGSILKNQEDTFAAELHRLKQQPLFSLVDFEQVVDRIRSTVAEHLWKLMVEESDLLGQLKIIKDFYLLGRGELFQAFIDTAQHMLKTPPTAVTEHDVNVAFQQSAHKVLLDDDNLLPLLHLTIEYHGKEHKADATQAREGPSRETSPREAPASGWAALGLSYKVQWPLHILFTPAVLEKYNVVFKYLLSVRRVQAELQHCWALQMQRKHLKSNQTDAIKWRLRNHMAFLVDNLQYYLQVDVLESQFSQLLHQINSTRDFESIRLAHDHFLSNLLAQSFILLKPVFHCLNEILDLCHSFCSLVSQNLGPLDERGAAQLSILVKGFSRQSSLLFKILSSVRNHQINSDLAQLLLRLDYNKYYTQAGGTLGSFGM
Sequence of UniProt Q9NUQ3 (Q9NUQ3 whole entry): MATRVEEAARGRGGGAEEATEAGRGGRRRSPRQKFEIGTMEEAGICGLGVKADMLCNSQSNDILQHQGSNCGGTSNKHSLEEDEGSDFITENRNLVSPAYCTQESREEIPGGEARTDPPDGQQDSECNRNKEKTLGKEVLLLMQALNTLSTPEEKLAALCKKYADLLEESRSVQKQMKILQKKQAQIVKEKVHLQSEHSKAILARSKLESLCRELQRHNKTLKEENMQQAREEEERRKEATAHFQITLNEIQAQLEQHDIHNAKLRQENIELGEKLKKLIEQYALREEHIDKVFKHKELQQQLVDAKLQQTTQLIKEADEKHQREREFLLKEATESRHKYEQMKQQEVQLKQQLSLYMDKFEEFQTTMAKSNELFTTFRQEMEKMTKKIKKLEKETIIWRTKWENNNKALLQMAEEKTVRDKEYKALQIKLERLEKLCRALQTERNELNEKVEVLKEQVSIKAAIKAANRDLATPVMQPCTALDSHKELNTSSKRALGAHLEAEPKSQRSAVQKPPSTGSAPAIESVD
Sequence of UniProt Q3B726 (Q3B726 whole entry): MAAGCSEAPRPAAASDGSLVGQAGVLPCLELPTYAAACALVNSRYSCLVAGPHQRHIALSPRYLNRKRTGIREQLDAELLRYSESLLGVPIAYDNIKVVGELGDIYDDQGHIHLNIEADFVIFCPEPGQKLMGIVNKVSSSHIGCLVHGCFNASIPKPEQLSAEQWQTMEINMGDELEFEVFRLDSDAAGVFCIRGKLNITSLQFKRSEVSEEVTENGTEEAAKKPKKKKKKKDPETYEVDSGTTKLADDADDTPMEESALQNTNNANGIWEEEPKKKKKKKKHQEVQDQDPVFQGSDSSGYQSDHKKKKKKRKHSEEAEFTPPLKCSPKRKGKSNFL
Sequence of UniProt Q9BUF5 (Q9BUF5 whole entry): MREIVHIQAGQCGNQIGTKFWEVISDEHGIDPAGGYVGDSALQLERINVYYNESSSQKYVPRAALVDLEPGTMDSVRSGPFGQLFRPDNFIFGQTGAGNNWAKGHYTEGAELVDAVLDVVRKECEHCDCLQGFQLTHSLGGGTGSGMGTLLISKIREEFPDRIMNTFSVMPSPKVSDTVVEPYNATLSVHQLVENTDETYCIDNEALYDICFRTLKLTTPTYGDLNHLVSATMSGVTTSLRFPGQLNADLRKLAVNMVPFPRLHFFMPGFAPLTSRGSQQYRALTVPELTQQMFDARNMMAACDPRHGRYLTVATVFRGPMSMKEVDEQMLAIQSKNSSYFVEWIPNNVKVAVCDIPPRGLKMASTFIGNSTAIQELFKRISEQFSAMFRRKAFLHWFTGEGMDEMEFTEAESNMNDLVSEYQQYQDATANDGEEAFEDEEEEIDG
Sequence of UniProt Q9BRA2 (Q9BRA2 whole entry): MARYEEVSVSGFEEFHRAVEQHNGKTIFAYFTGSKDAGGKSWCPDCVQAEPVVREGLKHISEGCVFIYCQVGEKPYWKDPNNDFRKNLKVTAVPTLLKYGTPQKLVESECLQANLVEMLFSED
Sequence of UniProt P10599 (P10599 whole entry): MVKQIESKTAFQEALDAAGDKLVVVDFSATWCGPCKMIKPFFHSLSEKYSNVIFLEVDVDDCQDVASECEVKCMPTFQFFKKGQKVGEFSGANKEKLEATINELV
Sequence of UniProt P19971 (P19971 whole entry): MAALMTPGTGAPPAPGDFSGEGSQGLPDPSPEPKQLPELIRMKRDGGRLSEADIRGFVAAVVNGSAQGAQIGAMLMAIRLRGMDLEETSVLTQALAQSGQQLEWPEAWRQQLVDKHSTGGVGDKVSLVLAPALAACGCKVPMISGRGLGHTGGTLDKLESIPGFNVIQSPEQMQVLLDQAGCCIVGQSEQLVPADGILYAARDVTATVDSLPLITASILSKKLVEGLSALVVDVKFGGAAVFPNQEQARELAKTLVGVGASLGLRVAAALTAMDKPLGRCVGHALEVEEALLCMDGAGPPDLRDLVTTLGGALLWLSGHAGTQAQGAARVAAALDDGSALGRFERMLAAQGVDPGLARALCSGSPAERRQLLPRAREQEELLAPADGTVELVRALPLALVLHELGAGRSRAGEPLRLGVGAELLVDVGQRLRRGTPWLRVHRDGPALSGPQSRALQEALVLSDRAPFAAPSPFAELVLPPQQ
Sequence of UniProt Q969T4 (Q969T4 whole entry): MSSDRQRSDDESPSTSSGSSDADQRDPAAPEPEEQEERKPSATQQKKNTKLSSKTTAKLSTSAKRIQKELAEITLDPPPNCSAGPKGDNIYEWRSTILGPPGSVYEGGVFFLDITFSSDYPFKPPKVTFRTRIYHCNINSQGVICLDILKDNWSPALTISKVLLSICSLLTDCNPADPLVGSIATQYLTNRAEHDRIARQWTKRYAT
Sequence of UniProt O00762 (O00762 whole entry): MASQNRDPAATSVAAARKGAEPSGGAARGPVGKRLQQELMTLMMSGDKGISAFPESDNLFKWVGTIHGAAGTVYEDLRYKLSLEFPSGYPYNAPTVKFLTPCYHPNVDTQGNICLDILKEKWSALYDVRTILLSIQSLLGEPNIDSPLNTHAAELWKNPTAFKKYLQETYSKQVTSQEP

Target	thermal stability z-score [1, 3]	thermal stability z-score ([1]; arsenate co-treatment: none)	thermal stability z-score [2]
TTK (UniProt P33981)	-0.85	-0.0774	0.742
TTL (UniProt Q8NG68)	-0.0821	0.166	-0.126
TTLL12 (UniProt Q14166)	1.14	0.696	-0.427
TTN (UniProt Q8WZ42)	0.609	0.578	0.121
TTPAL (UniProt Q9BTX7)	0.0476	0.0717	0.594
TTYH3 (UniProt Q9C0H2)	0.027	0.0475	-0.648
TUBA1C (UniProt Q9BQE3)	-0.163	0.681	-0.265
TUBA4A (UniProt P68366)	-0.0177	-0.502	-0.681
TUBB2A (UniProt Q13885)	0.383	0.458	0.692
TUBB3 (UniProt Q13509)	0.871	0.131	-0.447
TUBB6 (UniProt Q9BUF5)	-0.348	0.0923	0.532
TUBB (UniProt P07437)	0.525	-0.284	-0.425
TUBG1 (UniProt P23258)	0.135	-0.106	0.415
TUBGCP2 (UniProt Q9BSJ2)	-0.0736	-0.0416	0.27
TUBGCP3 (UniProt Q96CW5)	0.238	0.127	0.123
TUBGCP4 (UniProt Q9UGJ1)	-0.259	-0.815	0.141
TUBGCP5 (UniProt Q96RT8)	-0.335	-0.139	-0.119
TUBGCP6 (UniProt Q96RT7)	0.0893	0.0666	0.0497
TUFM (UniProt P49411)	-2.05	-1.11	-1.29
TULP3 (UniProt O75386)	-0.00846	0.00888	-0.00993
TUSC1 (UniProt Q2TAM9)	0.515	0.368	0.0895
TUT1 (UniProt Q9H6E5)	0.0998	-0.00913	-0.479
TVP23C|TVP23B	0.653	1.19	0.27
TWF1 (UniProt Q12792)	0.503	0.245	-0.412

Target	thermal stability z-score [1, 3]	thermal stability z-score ([1]; arsenate co-treatment: none)	thermal stability z-score [2]
TWF2 (UniProt Q6IBS0)	-0.088	-0.182	-0.697
TWISTNB (UniProt Q3B726)	-0.926	0.0342	-1.57
TXLNA (UniProt P40222)	0.459	0.0728	2.4
TXLNG (UniProt Q9NUQ3)	0.386	0.0198	1.86
TXN2 (UniProt Q99757)	-0.504	0.00983	2.39
TXN (UniProt P10599)	0.913	0.827	0.598
TXNDC5 (UniProt Q8NBS9)	-2.16	-1.86	0.0646
TXNDC9 (UniProt O14530)	-0.0714	-0.127	0.0909
TXNDC11 (UniProt Q6PKC3)	-0.797	-0.984	0.425
TXNDC12 (UniProt O95881)	-1.11	-1.37	0.744
TXNDC15 (UniProt Q96J42)	-1.92	-0.609	1.16
TXNDC17 (UniProt Q9BRA2)	0.493	0.408	0.728
TXNL1 (UniProt O43396)	-0.206	-0.576	7
TXNL4A (UniProt P83876)	0.343	-0.0818	-0.461
TXNRD1 (UniProt Q16881)	1.24	1.25	4.21
TXNRD2 (UniProt Q9NNW7)	0.179	0.166	4.89
TYMP (UniProt P19971)	0.856	0.677	0.13
TYMS (UniProt P04818)	1.42	0.818	14
TYRO3 (UniProt Q06418)	0.189	-0.0901	-0.136
TYSND1 (UniProt Q2T9J0)	-0.12	-0.377	-0.646
TYW1 (UniProt Q9NV66)	-0.0973	0.228	1.04
TYW3 (UniProt Q6IPR3)	-0.419	0.332	-0.177
TYW5 (UniProt A2RUC4)	0.502	0.336	0.66
U2AF1L5|U2AF1	-0.511	-0.0589	-1.4

Target	thermal stability z-score [1, 3]	thermal stability z-score ([1]; arsenate co-treatment: none)	thermal stability z-score [2]
U2AF2 (UniProt P26368)	-0.241	-0.169	-1.31
U2SURP (UniProt O15042)	0.962	0.428	0.507
UACA (UniProt Q9BZF9)	-0.163	-0.0805	0.02
UAP1 (UniProt Q16222)	0.373	0.0722	-0.553
UAP1L1 (UniProt Q3KQV9)	0.536	0.556	-0.793
UBA1 (UniProt P22314)	-0.526	0.213	-0.439
UBA2 (UniProt Q9UBT2)	-0.378	-0.166	-0.426
UBA3 (UniProt Q8TBC4)	-0.466	-0.282	-0.0439
UBA5 (UniProt Q9GZZ9)	-0.815	-0.52	0.622
UBA6	-0.423	-0.209	0.0818
UBA52 (UniProt P62987)	1.26	1.15	-0.00358
UBAC1 (UniProt Q9BSL1)	0.447	-0.0576	0.576
UBAC2 (UniProt Q8NBM4)	-0.594	-0.778	-0.0559
UBAP1 (UniProt Q9NZ09)	-1.2	-0.177	-0.964
UBAP2 (UniProt Q5T6F2)	0.26	-0.00688	-0.47
UBAP2L (UniProt Q14157)	0.549	0.413	-0.116
UBASH3B (UniProt Q8TF42)	-0.0394	-0.103	-0.165
UBE2A (UniProt P49459)	0.343	0.172	-0.0388
UBE2B (UniProt P63146)	0.48	-0.354	-0.132
UBE2C (UniProt O00762)	0.263	-0.139	0.4
UBE2E1 (UniProt P51965)	0.456	0.441	11.8
UBE2E2 (UniProt Q96LR5)	-0.607	-0.124	4.13
UBE2E3 (UniProt Q969T4)	0.196	-0.0847	1.92
UBE2F (UniProt Q969M7)	-0.0267	-0.0251	-0.224
